Source: ChEMBL document CHEMBL4609995, “Rational design, synthesis and biological profiling of new KDM4C inhibitors” (Bioorg Med Chem, 2020)

Key:
[1] = target: T1, Lysine-specific demethylase 4C (Homo sapiens) (UniProt Q9H3R0); experiment: Inhibition of KDM4C (unknown origin) at 10 uM using methylated H3 peptide as substrate by chemiluminescence assay relative to control
T1 sequence (whole entry): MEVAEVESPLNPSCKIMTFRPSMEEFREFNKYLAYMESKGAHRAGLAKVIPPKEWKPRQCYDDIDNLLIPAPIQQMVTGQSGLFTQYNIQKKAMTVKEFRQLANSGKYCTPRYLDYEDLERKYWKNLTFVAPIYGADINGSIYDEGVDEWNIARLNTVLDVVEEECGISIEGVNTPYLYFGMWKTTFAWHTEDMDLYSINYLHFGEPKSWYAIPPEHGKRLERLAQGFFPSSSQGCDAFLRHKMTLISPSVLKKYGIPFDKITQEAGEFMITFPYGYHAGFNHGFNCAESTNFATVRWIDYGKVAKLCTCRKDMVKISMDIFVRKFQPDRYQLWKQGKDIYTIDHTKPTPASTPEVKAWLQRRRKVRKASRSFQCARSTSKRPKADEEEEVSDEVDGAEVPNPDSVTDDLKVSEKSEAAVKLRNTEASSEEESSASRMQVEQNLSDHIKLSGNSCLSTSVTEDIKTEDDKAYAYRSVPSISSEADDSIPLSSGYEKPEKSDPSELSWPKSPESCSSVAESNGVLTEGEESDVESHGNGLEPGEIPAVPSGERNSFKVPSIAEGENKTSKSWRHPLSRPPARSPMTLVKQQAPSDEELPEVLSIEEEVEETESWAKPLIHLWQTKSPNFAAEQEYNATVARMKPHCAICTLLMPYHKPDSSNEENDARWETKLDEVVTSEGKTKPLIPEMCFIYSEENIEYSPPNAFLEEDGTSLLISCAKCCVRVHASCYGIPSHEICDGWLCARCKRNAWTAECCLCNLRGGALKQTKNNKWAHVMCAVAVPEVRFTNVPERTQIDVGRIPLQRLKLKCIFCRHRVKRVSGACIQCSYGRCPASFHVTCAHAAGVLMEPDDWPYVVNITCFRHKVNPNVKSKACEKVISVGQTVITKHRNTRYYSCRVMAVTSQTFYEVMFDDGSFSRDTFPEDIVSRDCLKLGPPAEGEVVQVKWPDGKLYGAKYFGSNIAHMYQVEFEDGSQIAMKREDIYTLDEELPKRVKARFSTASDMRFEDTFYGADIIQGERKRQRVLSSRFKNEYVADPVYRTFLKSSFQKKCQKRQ

[2] = target: T2, Lysine-specific demethylase 4C (Homo sapiens, UniProt Q9H3R0); experiment: Inhibition of KDM4C (unknown origin) using methylated H3 peptide as substrate by chemiluminescence assay
T2 sequence (Q9H3R0 whole entry): T1 sequence (whole entry)

[3] = Substrate activity at P-gp in MDCK2-MDR1 cells at 10 uM incubated for 60 mins in presence or absence of 2 uM P-gp inhibitor elacridar by LC-MS/MS analysis; format: ADME, cell-based, Canis lupus familiaris; conditions: dog, mdck-mdr1, 1 h
HepG2 = experiment: Antiproliferative activity against human HepG2 cells assessed as reduction in cell growth measured after 24 hrs by MTS assay; format: functional, cell-based; conditions: HepG2, 24 h
A549 = experiment: Antiproliferative activity against human A549 cells assessed as reduction in cell growth measured after 72 hrs by Alamar blue assay; format: functional, cell-based; conditions: A549, 72 h
P-gp [4] = experiment: Permeability across apical to basolateral side in MDCK2-MDR1 cells at 10 uM incubated for 60 mins in presence 2 uM P-gp inhibitor elacridar by LC-MS/MS analysis; format: ADME, cell-based, Canis lupus familiaris; conditions: dog, MDCK-MDR1, with elacridar 2 uM; read-out: permeability
[5] = Intrinsic clearance in mouse liver microsomes assessed per mg protein at 1 uM measured up to 60 mins in presence or absence of NADPH by LC-MS/MS analysis; format: ADME, Microsome; conditions: for microsomal CLint at 1 µM: liver microsomes, read-out: CLH
P-gp [6] = experiment: Efflux ratio of permeability from basolateral to apical over apical to basolateral side in MDCK2-MDR1 cells MDCK2-MDR1 cells at 10 uM incubated for 60 mins in presence 2 uM P-gp inhibitor elacridar by LC-MS/MS analysis; format: ADME, cell-based, Canis lupus familiaris; conditions: dog, MDCK-MDR1, with elacridar 2 uM
[7] = target: T3, Lysine-specific demethylase 4A (Homo sapiens, UniProt O75164); experiment: Inhibition of KDM4A (unknown origin)
T3 sequence (O75164 whole entry): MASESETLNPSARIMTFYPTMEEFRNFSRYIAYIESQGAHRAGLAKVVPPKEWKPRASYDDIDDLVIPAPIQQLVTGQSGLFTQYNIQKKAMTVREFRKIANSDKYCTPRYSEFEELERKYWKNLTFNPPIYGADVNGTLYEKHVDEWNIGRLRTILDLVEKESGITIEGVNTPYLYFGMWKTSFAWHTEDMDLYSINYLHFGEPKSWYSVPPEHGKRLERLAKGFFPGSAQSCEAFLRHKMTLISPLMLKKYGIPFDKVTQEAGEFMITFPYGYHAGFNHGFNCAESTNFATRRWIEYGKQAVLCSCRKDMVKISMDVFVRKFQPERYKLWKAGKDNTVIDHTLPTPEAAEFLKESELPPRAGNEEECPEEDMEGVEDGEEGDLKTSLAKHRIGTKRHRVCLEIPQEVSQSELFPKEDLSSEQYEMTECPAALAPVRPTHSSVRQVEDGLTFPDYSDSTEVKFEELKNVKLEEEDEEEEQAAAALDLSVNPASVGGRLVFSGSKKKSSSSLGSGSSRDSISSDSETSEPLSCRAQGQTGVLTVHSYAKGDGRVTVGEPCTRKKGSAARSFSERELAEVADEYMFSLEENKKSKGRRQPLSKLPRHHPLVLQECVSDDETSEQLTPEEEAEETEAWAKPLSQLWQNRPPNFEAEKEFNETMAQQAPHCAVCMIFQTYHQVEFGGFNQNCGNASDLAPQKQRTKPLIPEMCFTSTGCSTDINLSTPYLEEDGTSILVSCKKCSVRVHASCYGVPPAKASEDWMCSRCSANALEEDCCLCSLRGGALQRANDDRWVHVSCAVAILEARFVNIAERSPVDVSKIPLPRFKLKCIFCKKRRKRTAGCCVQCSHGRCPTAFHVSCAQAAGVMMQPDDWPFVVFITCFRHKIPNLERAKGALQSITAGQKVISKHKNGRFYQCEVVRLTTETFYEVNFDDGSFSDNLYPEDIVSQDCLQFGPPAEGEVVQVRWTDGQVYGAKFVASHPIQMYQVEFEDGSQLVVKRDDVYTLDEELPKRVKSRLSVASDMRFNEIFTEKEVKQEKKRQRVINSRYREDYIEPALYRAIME

[8] = target: T2, Lysine-specific demethylase 4C; experiment: Inhibition of KDM4C (unknown origin)
Homo sapiens = organism: Homo sapiens; experiment: Selectivity ratio, ratio of IC50 for KDM4A (unknown origin) to IC50 for KDM4C (unknown origin)
[9] = Electrochemical behavior of the compound assessed as reduction in redox potential; format: physicochemical

| Structure (SMILES) | inhibition [1] [%] | IC50 ([2]; read-out: IC50) [nM] | Activity [3] | IC50 (HepG2) [nM] | IC50 (A549) [nM] | Papp A→B at 1 h, 10 µM (P-gp [4]) [×10⁻⁶ cm/s] | microsomal CLint at 1 µM [5] [µL/min/mg] | efflux ratio at 1 h, 10 µM (P-gp [6]) | IC50 [7] [nM] | IC50 [8] [nM] | Ratio IC50 (Homo sapiens) | IC50 [2] | CLint ([5]; microsomes, 1 h, 1 µM) [µL/min/mg] | Activity [9] |
| --- | --- | --- | --- | --- | --- | --- | --- | --- | --- | --- | --- | --- | --- | --- |
| COc1ccc(/C=N/N(C)c2cc(=O)n(C)c(=O)[nH]2)cc1 | 40 to 70 |  |  |  |  |  |  |  |  |  |  |  |  |  |
| Cn1nc(-c2ccc(S(N)(=O)=O)cc2)nc2c(=O)n(C)c(=O)nc1-2 |  | 42 | Not Active | 5600 | > 30000 | 0.8 | < 12.5 | < 2 |  |  |  |  |  |  |
| CN(/N=C/c1ccc(F)cc1)c1cc(=O)n(C)c(=O)[nH]1 | > 70 |  |  |  |  |  |  |  |  |  |  |  |  |  |
| Cn1nc(Cc2ccccc2)nc2c(=O)n(C)c(=O)nc1-2 |  | 29 | Not Active | 5100 | > 30000 | 25.3 | < 12.5 | < 2 |  |  |  |  |  |  |
| Cn1c(=O)[nH]c2ccc(-c3ccccc3)cc2c1=O |  | > 10000 | Not Active | > 25000 | > 30000 | 27.3 | 229 | < 2 |  |  |  |  |  |  |
| Cn1nc(-c2ccncc2)nc2c(=O)n(C)c(=O)nc1-2 |  | 19 | Not Active | 1800 | 4300 | 13.4 | 11.6 | < 2 |  |  |  |  |  |  |
| Cn1c(=O)nc2[nH]nc(-c3ccccc3)nc-2c1=O |  | 7630 | Not Active | > 25000 | > 30000 | 35.5 | < 12.5 | < 2 |  |  |  |  |  |  |
| CN(/N=C/c1ccc(O)cc1)c1cc(=O)n(C)c(=O)[nH]1 | 40 to 70 |  |  |  |  |  |  |  |  |  |  |  |  |  |
| Cn1nc(-c2ccccc2)nc2n(C)c(=O)nc1-2 |  | 12700 | Not Active | > 25000 | > 30000 | 40.6 | 13.1 | < 2 |  |  |  |  |  |  |
| Cn1nc(-c2ccc(O)cc2)nc2c(=O)n(C)c(=O)nc1-2 |  | 242 | Not Active | 1100 | 5800 | 13.2 | < 12.5 | < 2 |  |  |  |  |  |  |
| Cn1nc(-c2ccc(F)cc2)nc2c(=O)n(C)c(=O)nc1-2 |  | 81 | Not Active | 820 | 1600 | 30.6 | < 12.5 | < 2 |  |  |  |  |  |  |
| CN(C)c1ccccc1/C=N/N(C)c1cc(=O)n(C)c(=O)[nH]1 | 40 to 70 |  |  |  |  |  |  |  |  |  |  |  |  |  |
| Cn1ncnc2c(=O)n(C)c(=O)nc1-2 |  | 541 | Not Active | 4500 | 22 | 16 | < 12.5 | < 2 | 2500 | 500 | 5 |  |  |  |
| Cn1nc(-c2ccc(C#N)cc2)nc2c(=O)n(C)c(=O)nc1-2 |  | 11 | Not Active | 800 | 1900 | 26.8 | < 12.5 | < 2 |  |  |  |  |  |  |
| CN(C)c1ccccc1-c1nc2c(=O)n(C)c(=O)nc-2n(C)n1 |  | 16 | Not Active | 2100 | 5700 | 18 | < 12.5 | < 2 |  |  |  |  |  |  |
| COC(=O)C1(c2ccc(-c3nc4c(=O)n(C)c(=O)nc-4n(C)n3)cc2)CC1 |  |  | Not Active | 1200 | 1300 | 24.9 | < 12.5 | < 2 |  |  |  | Not Active |  |  |
| Cn1nc(-c2ccn(C)c(=O)c2)nc2c(=O)n(C)c(=O)nc1-2 |  |  | Active | 4500 | 8800 | 1.1 |  | < 2 |  |  |  | Not Active | 71.8 |  |
| COc1ccc(-c2nc3c(=O)n(C)c(=O)nc-3n(C)n2)cc1 |  | 8 | Not Active | 800 | 1100 | 34.5 | < 12.5 | < 2 |  |  |  |  |  |  |
| CN(/N=C/c1ccccc1)c1cc(=O)n(C)c(=O)[nH]1 | > 70 |  |  |  |  |  |  |  |  |  |  |  |  | Active |
| Cn1nc(-c2ccccc2)nc2c(=O)n(C)c(=O)nc1-2 |  | 130 | Not Active | 870 | 1100 | 34.7 | < 12.5 | < 2 |  |  |  |  |  |  |
